Tests used:
[1] = target: T1, TLR9 (Homo sapiens, UniProt Q9NR96); assay: TLR9 antagonist screening, NF-κB-inducible SEAP reporter in HEK293 cells; assay type: cell-based; settings: 10 μM; stimulated with CpG ODN 2006 at 100 ng/ml
T1 construct: expressed in transfected cells; host or cells: HEK293
T1 sequence (Q9NR96 26-1032): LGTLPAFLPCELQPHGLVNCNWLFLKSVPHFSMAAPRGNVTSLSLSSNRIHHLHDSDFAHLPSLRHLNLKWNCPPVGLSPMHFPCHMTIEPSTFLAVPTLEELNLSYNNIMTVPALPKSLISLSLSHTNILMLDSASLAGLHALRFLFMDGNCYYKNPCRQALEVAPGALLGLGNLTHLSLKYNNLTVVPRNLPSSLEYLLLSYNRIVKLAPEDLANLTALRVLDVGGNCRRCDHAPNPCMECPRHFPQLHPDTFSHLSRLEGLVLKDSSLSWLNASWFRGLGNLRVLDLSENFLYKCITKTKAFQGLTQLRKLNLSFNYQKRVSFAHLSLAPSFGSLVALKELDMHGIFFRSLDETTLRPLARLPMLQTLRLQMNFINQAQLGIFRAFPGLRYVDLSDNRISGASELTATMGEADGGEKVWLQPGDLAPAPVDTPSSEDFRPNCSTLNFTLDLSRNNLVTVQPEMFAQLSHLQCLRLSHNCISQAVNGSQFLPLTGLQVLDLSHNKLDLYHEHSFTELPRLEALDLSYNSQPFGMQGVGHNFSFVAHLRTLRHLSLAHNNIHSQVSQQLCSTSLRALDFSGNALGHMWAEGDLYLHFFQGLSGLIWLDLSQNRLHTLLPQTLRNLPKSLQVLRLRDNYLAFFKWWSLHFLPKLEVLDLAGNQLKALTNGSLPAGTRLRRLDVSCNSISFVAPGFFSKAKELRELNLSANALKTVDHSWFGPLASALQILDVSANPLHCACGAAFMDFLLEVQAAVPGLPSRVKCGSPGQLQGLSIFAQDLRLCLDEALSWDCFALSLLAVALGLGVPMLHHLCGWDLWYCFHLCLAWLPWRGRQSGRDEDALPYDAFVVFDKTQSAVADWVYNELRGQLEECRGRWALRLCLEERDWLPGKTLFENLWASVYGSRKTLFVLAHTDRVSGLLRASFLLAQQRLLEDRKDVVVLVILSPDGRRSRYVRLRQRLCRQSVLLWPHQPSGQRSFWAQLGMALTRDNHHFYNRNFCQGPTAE
Protocol: (§1) Stimulation of TLRs 2, 3, 4, 5, 7, 8, and 9 was determined by assessing activation of the transcription factor NF-κB in HEK293 cells that were engineered to express the corresponding receptors. Assessment of TLR stimulation was based on the use of an NF-κB-inducible secreted alkaline phosphatase (SEAP) reporter system in which the SEAP reporter was under the control of a promoter inducible by NF-κB. Thus, the degree of activation of TLRs can be indirectly quantified spectrophotometrically by measuring the amount of the SEAP reporter that is produced.
(§2) The appropriate TLR-expressing cells were plated in Growth Medium in a 96-well plate (25,000-50,000 cells/well). The cells were stimulated with the appropriate positive control ligand or no ligand was added (negative control). The positive control ligands were: HKLM was used to stimulate TLR2; poly(I:C) was used to stimulate TLR3; LPS was used to stimulate TLR4; Flagellin was used to stimulate TLR5; CL097 was used to stimulate TLR7; CL075 was used to stimulate TLR8; CpG oligodeoxynucleotide (ODN) 2006 was used to stimulate TLR9. To test whether (+)-morphinans could block that activation of the TLR, the cells were pretreated with an antagonist for 30 minutes prior to addition of the positive control ligand. For this, 20 μL of the stock test compound solution (100 μM in H2O) was added to give a total volume of 200 μL. […] After a 16-20 hr incubation period at 37° C. in a CO2 incubator, 20 μL of the cell culture supernatant was added to 180 μL of QUANTI-Blue™ Media (InvivoGen, San Diego, Calif.), and the resulting solutions were incubated at 37° C. for an additional 1-3 hours according to the manufacturer's instructions. The OD's of the samples were then read at 650 nm on a Beckman Coulter AD 340C Absorbance Detector.

[2] = target: T2, TLR3 (Homo sapiens, UniProt O15455); assay: TLR3 antagonist screening, NF-κB-inducible SEAP reporter in HEK293 cells; assay type: cell-based; settings: 10 μM; stimulated with poly(I:C) at 1 μg/ml
T2 construct: expressed in transfected cells; host or cells: HEK293
Protocol: as §1, §2

[3] = target: T3, TLR2 (Homo sapiens, UniProt O60603); assay: TLR2 antagonist screening, NF-κB-inducible SEAP reporter in HEK293 cells; assay type: cell-based; settings: 10 μM; stimulated with HKLM at 10^8 cell/ml
T3 construct: expressed in transfected cells; host or cells: HEK293
Protocol: as §1, §2

[4] = target: T4, TLR4 (Homo sapiens, UniProt O00206); assay: TLR4 antagonist screening, NF-κB-inducible SEAP reporter in HEK293 cells; assay type: cell-based; settings: 10 μM; stimulated with LPS at 100 ng/ml
T4 construct: expressed in transfected cells; host or cells: HEK293
Protocol: as §1, §2

[5] = target: T5, TLR5 (Homo sapiens, UniProt O60602); assay: TLR5 antagonist screening, NF-κB-inducible SEAP reporter in HEK293 cells; assay type: cell-based; settings: 10 μM; stimulated with Flagellin at 100 ng/ml
T5 construct: expressed in transfected cells; host or cells: HEK293
Protocol: as §1, §2

[6] = tested on: chronic constriction injury (CCI) neuropathic pain model; assay: Mechanical allodynia (Von Frey) in chronic constriction injury (Bennett) model, Example 3; assay type: in vivo, rat; settings: Day 14 post-surgery, 30 and 90 min post-dosing, vs vehicle
From the text: Neuropathic pain affects approximately 1% of the U.S. population and is extremely difficult to manage. Usually the pain is chronic, severe, and fails to respond to traditional analgesic drugs. Fortunately, one of the most widely used animal models for neuropathic pain closely mimics the pain endured by patients. In this model, termed the chronic constriction injury (CCI) or Bennett model, four closely spaced ligatures tied loosely around the sciatic nerve of a rat cause demyelination of the nerve, resulting in spontaneous pain, such as prolonged paw elevation and licking of the ligated paw. Induced pain in the nerve-injured limb can be measured using Von Frey filaments, applied to the plantar surface of the paw to test for responses to non-noxious tactile stimulation. The onset of this heightened mechanical allodynia is quite rapid and it persists for 2-3 months.
In this example, the CCI ligation was performed on the left sciatic nerve in three groups of rats. Von Frey testing of mechanical allodynia was performed on both paws on Day 14 to determine the analgesic efficacy of the test agent. The testing was performed pre-dosing, and at 30 and 90 minutes post-dosing.
The animals were allocated to treatment groups based on their baseline Von Frey data, measured prior to surgery. The mechanical allodynia scores for each group were reviewed to ensure that the mean values and standard deviation satisfied the assumption of homogeneity. Thirty-one (31) animals were used on the study. Thirty (30) animals were initially allocated to treatment groups, and the remaining […] animals were held as spares. One spare was then used to replace an animal that died during surgery. Body weights were taken one day after arrival, prior to surgery and weekly thereafter. On Day 14, after the final behavioral testing, the animals were euthanized by carbon dioxide asphyxiation. No necropsy was performed nor tissues collected.
All surgeries were performed under aseptic conditions. Prior to surgery, the rats were sedated using inhaled Isoflurane anesthetic. The left leg was shaved and prepped. The common sciatic nerve was exposed and freed from adherent tissue at mid-thigh by separating the muscle (biceps femoris) by blunt dissection. Proximal to the sciatic nerve's trifurcation; approximately 7 mm of nerve was freed from the adhering tissue. Four ligatures, approximately 1 mm apart, were tied loosely around the nerve using 6.0 chromic catgut. Each of the sutures was tied loosely with a square knot around the sciatic nerve. A brief twitch in the muscle surrounding the exposure was an indicator of the desired degree of constriction. The site was then closed using the appropriate suture material. Post-operative care and observations were carried out until the animal recovered consciousness.
The animals underwent a series of behavioral testing for neuropathic pain assessment. A Von Frey test of mechanical allodynia was performed on both hind paws prior to surgery to achieve a baseline measurement for randomization and then following surgery on Day 14 (test article efficacy) according to Table 4.
Twice prior to surgery, the animals were acclimated to the allodynia apparatus. This habituated the rats to the testing devices to familiarize them with the apparatus so they were calm at the time of testing. […] Animals were first habituated to the testing chamber so that they were calm enough for their pain threshold to be assessed. […]

[7] = target: T1, TLR9; assay: TLR9 screening of (+)-morphinan library, SEAP reporter in HEK293 cells expressing TLR9; assay type: cell-based; settings: activator ODN2006; for OD 650 nm (mean ± sd): control (no activator) 0.14, activator 1.42 OD; for inhibition at 0.1 µM: HEK293, read-out: % Inhibition (mean), 100 nM; for inhibition at 10 µM: HEK293, read-out: % Inhibition (mean), 10 μM
Method in brief: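 HEK293 cells expressing TLR9 with an NF-κB-inducible SEAP reporter were preincubated with compound at 10 μM and 100 nM for 30 min at 37 °C, then stimulated with ODN2006. SEAP was read as OD 650 nm after 16-20 h, in triplicate.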

[8] = tested on: APAP-induced liver toxicity; assay: Acetaminophen (APAP)-induced hepatotoxicity model; assay type: in vivo, mouse; settings: APAP 500 mg/Kg ip, 12 hours post-APAP
Protocol: For this, APAP-induced liver toxicity was induced in male C57BL/6 mice aged between 8-10 weeks by a single intraperitoneal (ip) injection of APAP in PBS at a dose of 500 mg/Kg (Imaeda et al. (2009) J. Clin. Invest. 119(2):305-314). The ability of (+)-morphinans to reduce liver toxicity was tested in the following groups:
The (+)-morphinan (or PBS) was either administered as a single subcutaneous (sc) or ip injection concurrent with the APAP injection or one hour prior to the APAP injection.
The mice were sacrificed 12 hours post-APAP treatment. Liver samples were stained with H&E and analyzed for signs of necrosis and hemorrhage. Histology scores were assigned using the standard rating scale. The levels of serum alanine transaminase (ALT) were also measured in each animal using a standard assay.

[9] = tested on: Experimental Autoimmune Encephalomyelitis (EAE); settings: for EAE clinical scores: bid for 20 days, Cmpd II-98 5 mg/kg sc, others 20 mg/kg sc, Prednisolone 4.5 mg/kg ip, vs vehicle control
[10] = Dissolution of compound in dosing vehicle (EAE study); assay type: physicochemical; settings: 20 mg/kg in sterile dd H2O; delivered as a suspension
From the text: It is not known whether the suspension dissolved adequately in the body to provide sufficient plasma concentration for efficacy.

T2 sequence (O15455 24-904, species assumed): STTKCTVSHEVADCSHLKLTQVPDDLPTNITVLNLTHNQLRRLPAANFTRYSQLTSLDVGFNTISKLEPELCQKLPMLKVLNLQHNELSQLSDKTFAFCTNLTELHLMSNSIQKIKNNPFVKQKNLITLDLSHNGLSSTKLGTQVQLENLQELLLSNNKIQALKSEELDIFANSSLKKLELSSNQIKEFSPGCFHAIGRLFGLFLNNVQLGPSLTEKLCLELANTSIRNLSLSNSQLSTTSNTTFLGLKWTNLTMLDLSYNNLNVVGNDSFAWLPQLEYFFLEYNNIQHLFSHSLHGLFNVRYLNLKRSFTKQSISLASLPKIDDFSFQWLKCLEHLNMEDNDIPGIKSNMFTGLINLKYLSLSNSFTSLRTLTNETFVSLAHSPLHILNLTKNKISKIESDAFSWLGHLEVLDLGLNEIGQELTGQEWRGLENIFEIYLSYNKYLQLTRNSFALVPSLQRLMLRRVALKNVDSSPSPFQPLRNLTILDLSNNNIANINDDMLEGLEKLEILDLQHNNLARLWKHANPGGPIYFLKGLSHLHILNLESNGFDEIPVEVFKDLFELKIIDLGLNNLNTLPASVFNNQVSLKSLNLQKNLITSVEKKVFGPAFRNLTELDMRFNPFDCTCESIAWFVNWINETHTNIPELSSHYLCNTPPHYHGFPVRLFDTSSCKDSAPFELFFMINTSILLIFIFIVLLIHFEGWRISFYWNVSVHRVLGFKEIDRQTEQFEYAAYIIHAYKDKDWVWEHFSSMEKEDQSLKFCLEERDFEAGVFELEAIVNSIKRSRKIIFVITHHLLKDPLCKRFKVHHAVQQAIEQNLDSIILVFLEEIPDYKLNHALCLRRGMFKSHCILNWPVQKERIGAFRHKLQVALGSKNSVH
T3 sequence (O60603 21-784, species assumed): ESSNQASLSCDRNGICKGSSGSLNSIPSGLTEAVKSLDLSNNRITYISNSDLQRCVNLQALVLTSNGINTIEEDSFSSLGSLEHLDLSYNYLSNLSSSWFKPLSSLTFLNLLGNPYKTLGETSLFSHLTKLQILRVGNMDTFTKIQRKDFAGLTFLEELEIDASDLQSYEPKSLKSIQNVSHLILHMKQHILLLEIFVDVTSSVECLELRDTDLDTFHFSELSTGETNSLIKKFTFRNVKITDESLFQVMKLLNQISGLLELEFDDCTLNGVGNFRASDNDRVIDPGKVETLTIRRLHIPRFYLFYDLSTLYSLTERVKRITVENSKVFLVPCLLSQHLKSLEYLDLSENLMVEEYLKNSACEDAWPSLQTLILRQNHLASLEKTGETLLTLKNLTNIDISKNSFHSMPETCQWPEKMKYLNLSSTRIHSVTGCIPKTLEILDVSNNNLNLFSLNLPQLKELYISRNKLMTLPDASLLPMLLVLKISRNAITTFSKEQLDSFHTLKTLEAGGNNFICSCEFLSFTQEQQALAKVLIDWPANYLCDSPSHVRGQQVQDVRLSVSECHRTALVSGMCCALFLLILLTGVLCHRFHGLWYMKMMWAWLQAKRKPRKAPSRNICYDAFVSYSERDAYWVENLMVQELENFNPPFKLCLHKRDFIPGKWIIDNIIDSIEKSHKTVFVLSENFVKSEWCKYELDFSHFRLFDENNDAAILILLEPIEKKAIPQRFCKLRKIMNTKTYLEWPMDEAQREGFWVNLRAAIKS
T4 sequence (O00206 24-839, species assumed): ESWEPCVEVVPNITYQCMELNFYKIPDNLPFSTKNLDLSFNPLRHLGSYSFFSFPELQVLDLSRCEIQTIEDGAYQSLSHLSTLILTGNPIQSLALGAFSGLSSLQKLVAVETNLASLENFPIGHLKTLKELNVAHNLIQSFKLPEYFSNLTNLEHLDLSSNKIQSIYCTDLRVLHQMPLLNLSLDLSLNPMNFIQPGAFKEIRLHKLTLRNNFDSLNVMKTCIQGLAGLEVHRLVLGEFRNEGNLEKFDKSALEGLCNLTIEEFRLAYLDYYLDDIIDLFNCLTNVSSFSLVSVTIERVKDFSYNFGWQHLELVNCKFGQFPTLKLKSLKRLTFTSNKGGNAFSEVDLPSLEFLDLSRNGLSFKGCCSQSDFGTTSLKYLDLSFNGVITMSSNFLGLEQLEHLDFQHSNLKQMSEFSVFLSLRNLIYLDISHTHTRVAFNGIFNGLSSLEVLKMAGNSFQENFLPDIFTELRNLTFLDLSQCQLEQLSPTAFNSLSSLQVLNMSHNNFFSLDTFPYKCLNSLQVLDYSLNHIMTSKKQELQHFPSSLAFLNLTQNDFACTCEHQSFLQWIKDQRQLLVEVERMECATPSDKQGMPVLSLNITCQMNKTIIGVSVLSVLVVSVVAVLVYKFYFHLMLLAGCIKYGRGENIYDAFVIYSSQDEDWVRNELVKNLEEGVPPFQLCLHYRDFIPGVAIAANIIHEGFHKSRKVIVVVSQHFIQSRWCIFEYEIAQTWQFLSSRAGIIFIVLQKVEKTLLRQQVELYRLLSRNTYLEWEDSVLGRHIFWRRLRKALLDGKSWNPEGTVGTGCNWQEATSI
T4 sequence (Q9Y6Y9 17-160 partner limits assumed, species assumed): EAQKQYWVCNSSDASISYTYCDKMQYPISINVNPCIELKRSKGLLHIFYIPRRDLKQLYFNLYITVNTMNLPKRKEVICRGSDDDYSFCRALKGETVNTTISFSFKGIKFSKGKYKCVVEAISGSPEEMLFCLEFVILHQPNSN
T5 sequence (O60602 21-858, species assumed): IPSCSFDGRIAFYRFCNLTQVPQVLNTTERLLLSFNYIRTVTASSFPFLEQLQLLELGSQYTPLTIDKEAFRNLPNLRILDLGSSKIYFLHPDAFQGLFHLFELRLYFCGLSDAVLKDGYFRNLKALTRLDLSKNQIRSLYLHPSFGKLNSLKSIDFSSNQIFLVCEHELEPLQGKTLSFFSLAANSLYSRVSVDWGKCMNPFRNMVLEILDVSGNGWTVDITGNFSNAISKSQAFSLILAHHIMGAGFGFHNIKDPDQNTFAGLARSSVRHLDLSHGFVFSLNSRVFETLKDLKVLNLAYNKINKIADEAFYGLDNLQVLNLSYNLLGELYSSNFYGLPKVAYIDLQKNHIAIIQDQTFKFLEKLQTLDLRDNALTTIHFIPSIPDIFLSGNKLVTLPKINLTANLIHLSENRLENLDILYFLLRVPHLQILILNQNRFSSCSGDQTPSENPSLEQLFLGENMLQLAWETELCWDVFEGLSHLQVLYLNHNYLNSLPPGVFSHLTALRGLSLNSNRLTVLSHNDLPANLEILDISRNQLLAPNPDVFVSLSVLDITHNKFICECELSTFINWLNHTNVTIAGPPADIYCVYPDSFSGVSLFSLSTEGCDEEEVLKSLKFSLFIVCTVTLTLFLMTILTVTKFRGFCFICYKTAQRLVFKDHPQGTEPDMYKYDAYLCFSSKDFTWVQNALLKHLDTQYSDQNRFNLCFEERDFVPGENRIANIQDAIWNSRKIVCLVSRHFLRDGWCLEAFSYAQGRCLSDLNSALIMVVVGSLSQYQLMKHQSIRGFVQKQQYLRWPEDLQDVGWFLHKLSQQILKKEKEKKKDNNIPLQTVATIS

## O=C1CC[C@]2(O)[C@@H]3Cc4ccc(O)c5c4[C@]2(CCN3CC2CC2)[C@@H]1O5 [(+)-Naltrexone, (+)-naltrexone]
[1]
  Average % Inhibition at TLR9: 51%
[2]
  Average % Inhibition at TLR3: 22%
[3]
  Average % Inhibition at TLR2: 21%
[4]
  Average % Inhibition at TLR4: 24%
[5]
  Average % Inhibition at TLR5: 22%

## NCC1(CC(=O)O)CCCCC1 [Gabapentin]
[6]; (+)-naloxone.HCl 66.7 mg/kg S.C., Gabapentin 100 mg/kg I.P.
  Mechanical allodynia (50% allodynia threshold), left (affected) paw: effective at significantly reducing the allodynia
[6]
  Mechanical allodynia (50% allodynia threshold), right (unaffected) paw: higher threshold

## COc1ccc2c3c1O[C@@H]1C(=O)CC[C@@H]4[C@H](C2)N(CC2CC2)CC[C@@]314 [II-24]
[7]; 100 nM
  OD 650 nm (mean ± sd): 0.65 ± 0.04 OD
[7]; 10 μM
  OD 650 nm (mean ± sd): 0.09 ± 0.01 OD
[7]
  inhibition at 0.1 µM: 54%
  inhibition at 10 µM: 94%
[8]; test doses and timing per Table 6
  Protection from APAP-induced toxicity: None of compounds II-24, II-93, or III-2 provided any protection
[8]; vs APAP alone
  Liver histology scores (necrosis and hemorrhage): about the same as those only exposed to APAP
[9]
  EAE clinical scores: did not improve EAE

## COC1=CC=C2[C@@H]3Cc4ccc(OC)c5c4[C@]2(CCN3)[C@@H]1O5 [II-38]
[7]; 100 nM
  OD 650 nm (mean ± sd): 0.86 ± 0.01 OD
[7]; 10 μM
  OD 650 nm (mean ± sd): 0.12 ± 0.01 OD
[7]
  inhibition at 0.1 µM: 40%
  inhibition at 10 µM: 92%
[9]
  EAE clinical scores: did not improve EAE
[10]
  Dissolution in dosing vehicle: did not dissolve into a solution

## COC1=CCC2[C@@H]3Cc4ccc(OC)c5c4[C@]2(CCN3)[C@@H]1O5 (some centres unmarked) [II-98]
[7]; 100 nM
  OD 650 nm (mean ± sd): 1.02 ± 0.02 OD
[7]; 10 μM
  OD 650 nm (mean ± sd): 0.56 ± 0.03 OD
[7]
  inhibition at 0.1 µM: 28%
  inhibition at 10 µM: 60%
[9]; 20 mg/kg bid, subcutaneous
  Acute toxicity: acute toxicity was observed

## C[C@]12C=CC(=O)C=C1CC[C@@H]1[C@@H]2[C@@H](O)C[C@@]2(C)[C@H]1CC[C@]2(O)C(=O)CO [Prednisolone, reference compound]
[9]
  EAE clinical scores: significantly reduced EAE clinical scores
